Here are results for seven compounds from patent US20240247080A1, “GLP1/GIP/NPY2 RECEPTOR TRIPLE AGONISTS” (Boehringer Ingelheim International GmbH, priority 2022, published 2024).

Like-named read-outs stand apart in the source and are kept apart here. Starred links: 1 amine or outer side, 2 acyl side, 3 side chain; linkers in the order of their positions; H or OH if unused. Non-standard residues stand in square brackets, D forms with d. Groups on a side chain read outwards from the residue. No end group written: not given here. *: point of attachment. C20 diacid = O=C(O)CCCCCCCCCCCCCCCCCCC(=O)*; C18 diacid = O=C(O)CCCCCCCCCCCCCCCCC(=O)*; γGlu = O=C(O)[C@H](CCC(=O)[*:2])N[*:1]; εLys = N[C@@H](CCCCN[*:1])C(=O)[*:2]; AEEA = NCCOCCOCC(=O)O; Aib = CC(C)(N)C(=O)O; Ahx = NCCCCCC(=O)O

One data set concerns the target T1, hGLP1R (Homo sapiens, UniProt P43220).
T1 construct: expressed in transfected cells; host or cells: HEK-293 cells carrying a CRE-luciferase reporter gene
As to the kind of experiment: hGLP1R CreLuc reporter gene assay in 0.5% and 100% plasma. The class given is cell-based. To be noted: CreLuc reporter gene assay. In a few lines:
(§1)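 HEK cells (GLP-1R, NPY2R) or CHO cells (GIPR) carrying a CRE-luciferase reporter, incubated 4 h at 37 °C with peptides in HBSS/20 mM HEPES pH 7.4 plus 0.5% human plasma, or in 100% plasma. Luminescence read; EC50 from 8-point variable-slope sigmoid fits.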
Background: In a reporter assay the amount or activity of a reporter protein is the signal.

A further data set addresses T2, hGIPR (Homo sapiens, UniProt P48546).
T2 construct: expressed in transfected cells; host or cells: CHO cells carrying a CRE-luciferase reporter gene
T2 sequence (P48546 22-466): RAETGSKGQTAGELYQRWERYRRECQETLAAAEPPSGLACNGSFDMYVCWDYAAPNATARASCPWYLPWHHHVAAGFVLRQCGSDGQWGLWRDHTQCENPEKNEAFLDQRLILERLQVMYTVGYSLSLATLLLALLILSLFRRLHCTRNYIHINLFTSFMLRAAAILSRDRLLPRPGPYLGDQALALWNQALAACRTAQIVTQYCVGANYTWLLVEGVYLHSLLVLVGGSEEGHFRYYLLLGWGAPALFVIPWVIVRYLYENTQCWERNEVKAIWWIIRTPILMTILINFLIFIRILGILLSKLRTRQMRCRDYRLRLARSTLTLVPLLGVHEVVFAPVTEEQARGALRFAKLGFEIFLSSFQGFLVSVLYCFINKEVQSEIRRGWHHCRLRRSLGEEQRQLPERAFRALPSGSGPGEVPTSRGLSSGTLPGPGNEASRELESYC
Put plainly: hGIPR CreLuc reporter gene assay in 0.5% and 100% plasma. To be noted: CreLuc reporter gene assay. It is filed as cell-based. The gist of the method: as §1

A further data set concerns the target T3, hNPY2R (Homo sapiens, UniProt P49146).
T3 construct: expressed in transfected cells; host or cells: HEK-293 cells carrying a CRE-luciferase reporter gene
T3 sequence (P49146 1-381): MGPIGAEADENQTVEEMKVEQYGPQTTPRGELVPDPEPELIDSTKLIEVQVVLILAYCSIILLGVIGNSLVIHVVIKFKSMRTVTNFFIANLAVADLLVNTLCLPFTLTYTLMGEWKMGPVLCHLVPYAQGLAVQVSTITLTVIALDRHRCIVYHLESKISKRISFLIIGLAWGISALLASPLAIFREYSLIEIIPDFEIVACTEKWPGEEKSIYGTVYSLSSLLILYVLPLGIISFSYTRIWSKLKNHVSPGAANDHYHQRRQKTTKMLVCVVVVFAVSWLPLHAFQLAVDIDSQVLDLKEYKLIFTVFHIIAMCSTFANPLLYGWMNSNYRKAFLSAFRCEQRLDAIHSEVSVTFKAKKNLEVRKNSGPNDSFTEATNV
As to the kind of experiment: hNPY2R CreLuc reporter gene assay in 0.5% and 100% plasma. It is filed as cell-based. As to conditions: CreLuc reporter gene assay. The gist of the method:
as §1

Data set [1] in a line: Mouse PK after intravenous application. It is filed as in vivo. As to conditions: plasma, mean residence time, intravenous 30-60 nmol/kg, male NMRI mice. Here is the method:
Pharmacokinetic parameters of the peptides were determined after intravenous application to NMRI mice. Male NMRI mice were obtained from Janvier Laboratories (France) weighing 30 to 40 g. Mice were housed in standard cages with a 12:12 hour light:dark cycle and standard food and water access ad libitum. Each test peptide was dissolved in 50 mM phosphate buffer (pH 7.4)/3.5% mannitol. Intravenous application of 30-60 nmol/kg was performed via the tail vein. Serial blood samples from conscious mice were collected from the saphenous vein in EDTA-containing vials at different time points up to 56 hours post-dosing. Subsequently, plasma was prepared by centrifugation for 5 min at approximately 5000 rpm and stored at −20° C. until quantification of the peptide plasma levels by liquid chromatography mass spectrometry (LC-MS). Individual plasma concentration—time profiles were analysed by a non-compartmental approach and the resulting pharmacokinetic parameters were calculated.

Where [2] appears, read: 0.5% human plasma, read-out: hGLP1R 0.5% hP.
[3] abbreviates: 0.5% human plasma, read-out: hGIPR 0.5% hP.
The mark [4] stands for this setting: 100% human plasma, read-out: hGIPR 100% hP.
Where [5] appears, read: 0.5% human plasma, read-out: hNPY2R 0.5% hP.
Where [6] appears, read: 100% human plasma, read-out: hNPY2R 100% hP.

T1 sequence (P43220 24-463): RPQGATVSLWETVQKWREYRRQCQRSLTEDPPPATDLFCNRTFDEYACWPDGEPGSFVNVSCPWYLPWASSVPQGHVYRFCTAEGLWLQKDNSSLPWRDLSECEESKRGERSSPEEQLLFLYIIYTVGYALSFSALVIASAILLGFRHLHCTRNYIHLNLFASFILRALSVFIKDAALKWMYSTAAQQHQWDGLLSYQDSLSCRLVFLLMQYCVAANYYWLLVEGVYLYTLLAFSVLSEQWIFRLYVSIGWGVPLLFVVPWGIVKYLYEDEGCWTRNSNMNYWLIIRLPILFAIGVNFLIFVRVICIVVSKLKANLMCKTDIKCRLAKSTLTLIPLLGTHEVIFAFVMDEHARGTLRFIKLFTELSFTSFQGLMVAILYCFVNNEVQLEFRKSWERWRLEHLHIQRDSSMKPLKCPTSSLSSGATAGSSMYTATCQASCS

Usually MRT stands for a mean duration of stay, worked out from the concentration-time curve. For the compound `CC[C@H](C)[C@H](NC(=O)[C@H](CC(C)C)NC(=O)[C@H](Cc1c[nH]c2ccccc12)NC(=O)[C@H](CCC(=O)O)NC(=O)[C@@H](NC(=O)[C@H](Cc1ccccc1)NC(=O)[C@H](CCC(=O)O)NC(=O)C(C)(C)NC(=O)[C@H](CCC(N)=O)NC(=O)[C@H](C)NC(=O)[C@H](CCC(N)=O)NC(=O)[C@H](CCCCN)NC(=O)[C@H](CCC(=O)O)NC(=O)[C@H](CC(C)C)NC(=O)C(C)(C)NC(=O)[C@@H](NC(=O)[C@H](CO)NC(=O)[C@H](Cc1ccc(O)cc1)NC(=O)[C@H](CC(=O)O)NC(=O)[C@H](CO)NC(=O)[C@@H](NC(=O)[C@H](Cc1ccccc1)NC(=O)[C@@H](NC(=O)CNC(=O)[C@H](CCC(=O)O)NC(=O)C(C)(C)NC(=O)[C@@H](N)Cc1ccc(O)cc1)[C@@H](C)O)[C@@H](C)O)[C@@H](C)CC)C(C)C)C(=O)N[C@@H](CCCCNC(=O)[C@@H](N)CCCCNC(=O)CC[C@H](NC(=O)CC[C@H](NC(=O)CC[C@H](NC(=O)CC[C@H](NC(=O)CC[C@H](NC(=O)CC[C@H](NC(=O)CCCCCCCCCCCCCCCCC(=O)O)C(=O)O)C(=O)O)C(=O)O)C(=O)O)C(=O)O)C(=O)O)C(=O)NCC(=O)NCC(=O)N1CCC[C@H]1C(=O)N[C@@H](CO)C(=O)N[C@@H](CCC(=O)O)C(=O)NCC(=O)N[C@@H](C)C(=O)N[C@@H](CO)C(=O)N[C@@H](CC(C)C)C(=O)N[C@@H](CCCNC(=N)N)C(=O)N[C@@H](Cc1c[nH]cn1)C(=O)N[C@@H](Cc1ccc(O)cc1)C(=O)N[C@@H](Cc1ccc(O)cc1)C(=O)N[C@@H](CC(N)=O)C(=O)N[C@@H](Cc1c[nH]c2ccccc12)C(=O)N[C@@H](CC(C)C)C(=O)N[C@H](C(=O)N[C@@H](CCCNC(=N)N)C(=O)N[C@@H](CCC(N)=O)C(=O)N[C@@H](CCCNC(=N)N)C(=O)N[C@@H](Cc1ccc(O)cc1)C(N)=O)[C@@H](C)O` [Compound 255, Y-Aib-E-G-T-F-T-S-D-Y-S-I-Aib-L-E-K-Q-A-Q-Aib-E-F-V-E-W-L-I-K(1,3)-GGPSEGASLRHYYNWLTRQRY-NH2.C18DA-gGlu-gGlu-gGlu-gGlu-gGlu-gGlu-eLys(1,2)], the EC50 was 340 pM on hGLP1R (setting [2]), 460 pM at hGIPR (setting [3]), 1230 pM on hGIPR (setting [4]) and 17300 pM at hNPY2R (setting [5]). The compound further gave a mean residence time MRT in data set [1] of 11 h.
“H-Y[Aib]EGTFTSDYSI[Aib]LEKQAQ[Aib]AFVQWLIK([Ahx-γGlu-γGlu-γGlu-γGlu-γGlu-γGlu-C18 diacid])GGPSSGASLRHYYNWLTRQRY-NH2 [Compound 139, Y-Aib-E-G-T-F-T-S-D-Y-S-I-Aib-L-E-K-Q-A-Q-Aib-A-F-V-Q-W-L-I-K(1,3)-GGPSSGASLRHYYNWLTRQRY-NH2.C18DA-gGlu-gGlu-gGlu-gGlu-gGlu-gGlu-AHX(1,2)]”: the EC50 on hGLP1R (setting [2]) amounted to 70 pM; at hGIPR (setting [3]), 220 pM; at hGIPR (setting [4]), 1040 pM; on hNPY2R (setting [5]), 18300 pM. Also, the mean residence time (MRT) in data set [1] was 10 h.
For the compound “Y[Aib]EGTFTSDYSI[Aib]LEKQAQ[Aib]AFVEWLIK([AEEA-AEEA-γGlu-γGlu-γGlu-γGlu-C18 diacid])GGPSEGASLRHYYNWLTRQRY-NH2 [Compound 297, Y-Aib-E-G-T-F-T-S-D-Y-S-I-Aib-L-E-K-Q-A-Q-Aib-A-F-V-E-W-L-I-K(1,3)-GGPSEGASLRHYYNWLTRQRY-NH2.C18DA-gGlu-gGlu-gGlu-gGlu-OEG-OEG(1,2)]”, the EC50 on hGLP1R (setting [2]) stood at 120 pM; at hGIPR (setting [3]), 250 pM; at hGIPR (setting [4]), 930 pM; at hNPY2R (setting [6]), 40500 pM. This compound also displayed an MRT in data set [1] of 7.5 h.
For the compound “Y[Aib]EGTFTSDYSI[Aib]LEKQAQ[Aib]AFVEWLIK([εLys-γGlu-γGlu-γGlu-γGlu-γGlu-γGlu-γGlu-C20 diacid])GGPSSGASLRHYYNWLTRQRY-NH2 [Compound 225, Y-Aib-E-G-T-F-T-S-D-Y-S-I-Aib-L-E-K-Q-A-Q-Aib-A-F-V-E-W-L-I-K(1,3)-GGPSSGASLRHYYNWLTRQRY-NH2.C20DA-gGlu-gGlu-gGlu-gGlu-gGlu-gGlu-gGlu-eLys(1,2)]”, the EC50 on hGLP1R (setting [2]) worked out at 120 pM; at hGIPR (setting [3]) it was 280 pM; on hGIPR (setting [4]) it was 1230 pM; on hNPY2R (setting [5]), 14900 pM. The same compound registered an MRT in data set [1] of 13 h.
With “Y[Aib]EGTFTSDYSI[Aib]LEKQAQ[Aib]AFVQWLIK([γGlu-γGlu-γGlu-γGlu-γGlu-γGlu-C20 diacid])GGPSEGASLRHYYNWLTRQRY-NH2 [Compound 223, Y-Aib-E-G-T-F-T-S-D-Y-S-I-Aib-L-E-K-Q-A-Q-Aib-A-F-V-Q-W-L-I-K(1,3)-GGPSEGASLRHYYNWLTRQRY-NH2.C20DA-gGlu-gGlu-gGlu-gGlu-gGlu-gGlu(1,2)]”, the EC50 on hGLP1R (setting [2]) came to 180 pM; at hGLP1R (100% human plasma, read-out: hGLP1R 100% hP), 4390 pM; on hGIPR (setting [3]), 390 pM; at hNPY2R (setting [5]), 13200 pM. The MRT in data set [1] is 8.8 h.
With “Y[Aib]EGTFTSDYSI[Aib]LEKQAQ[Aib]AFVQWLIK([εLys-γGlu-γGlu-γGlu-γGlu-γGlu-γGlu-γGlu-C20 diacid])GGPSEGASLRHYYNWLTRQRY-NH2 [Compound 224, Y-Aib-E-G-T-F-T-S-D-Y-S-I-Aib-L-E-K-Q-A-Q-Aib-A-F-V-Q-W-L-I-K(1,3)-GGPSEGASLRHYYNWLTRQRY-NH2.C20DA-gGlu-gGlu-gGlu-gGlu-gGlu-gGlu-gGlu-eLys(1,2)]”, the EC50 at hGLP1R (setting [2]) was 130 pM; on hGIPR (setting [3]) it was 430 pM; on hNPY2R (setting [5]), 10600 pM; at hNPY2R (setting [6]), 31600 pM. This compound yielded an MRT in data set [1] of 10.2 h.
“Y[Aib]EGTFTSDYSI[Aib]LEKQAQ[Aib]EFVEWLIK([AEEA-AEEA-γGlu-γGlu-γGlu-C18 diacid])GGPSEGASLRHYYNWLTRQRY-NH2 [Compound 284, Y-Aib-E-G-T-F-T-S-D-Y-S-I-Aib-L-E-K-Q-A-Q-Aib-E-F-V-E-W-L-I-K(1,3)-GGPSEGASLRHYYNWLTRQRY-NH2.C18DA-gGlu-gGlu-gGlu-OEG-OEG(1,2)]”: the EC50 at hGLP1R (setting [2]) was found to be 510 pM; on hGIPR (setting [3]), 330 pM; on hGIPR (setting [4]), 800 pM; on hNPY2R (setting [5]) it was 18800 pM. In data set [1], the MRT was 6.8 h.
